Source: US9127255B2, “3-dimensional scaffolds for improved differentiation of pluripotent stem cells to hepatocytes” (Takara Bio Europe AB, priority 2010, dated 2015)

System: CYP2C9
Test: CYP2C9 activity and induction in cells cultured in Alvatex (ReInnervate) scaffolds, OH-Diclophenac by HPLC
Assay type: cell-based, human
Conditions: cells cultured on 3D surfaces (FIG. 8)
Method: Cell line SA461 (Cellartis AB) was cultured and differentiated according to conditions in Examples 1 and 2, experiment 083 and then according to the scheme below: Cells were induced with 1 mM Phenobarbital, 10 μM dexamethasone and 5 μM β-naphthoflavone. To each well, either induction or control medium was added (400 ul/well 2D cultures, 2000 ul/well in […] scaffolds) and the plate was incubated 24 h. After 24 hours of induction, all wells were washed 2× in DPBS+/+ and activity assay medium was added, 200 ul/well in 2D controls and 1000 ul/well in ReInnervate scaffolds. […] After 16 hours incubation at 37 C, the medium was transferred to eppendorf tubes and spun down for 20 min at 4° C. and 10000 g. […] Figures show CYP response in hESC-derived hepatocytes cultured either on […]) or 2D control, cells induced with Diclofenac to mimic hepatic liver activity. Activity assay performed at day 23 and day 29 as indicated.

Compound: O=C(O)Cc1ccccc1Nc1c(Cl)cccc1Cl [diclophenac]
- CYP2C9 activity when cells were treated: elevated
